Tests used:
HT29 cells = assay: Mitochondrial ROS, MitoSOX FACS; type: cell-based, human; conditions: 24 h
Experimental: The production of mitochondrial ROS was determined by MitoSOX™ Red (Thermo Fisher Scientific, Waltham, MA, USA), respectively. Briefly, 5 μM MitoSOX™ Red was added to each cells cultured in conditioned medium and incubated at 37 °C for 10 min. The cells were then washed twice with PBS and the fluorescence intensity was analyzed using a BD FACS Canto II (BD Biosciences, San Jose, CA, USA) measuring excitation/emission at wavelength of 510/580 nm.

LDHA [1] = assay: LDH activity and LDHA expression in LLC tumor tissue lysates; type: in vivo, mice
Experimental: A purification of recombinant LDHA was performed as described previously. LDH activity was determined by measuring the decrease of absorbance at 340 nm due to the oxidation of NADH in 20 mM HEPES-K^+, 0.05% bovine serum albumin (BSA), 20 μM NADH, and 2 mM pyruvate (Sigma-Aldrich, St. Louis, MO, USA) at a pH of 7.2 using a spectrofluorometer (Spectramax M2, Molecular Devices, San Jose, CA, USA; excitation 340 nm; emission 460 nm), as described previously. Ten nanograms of recombinant LDHA protein were used in the in vitro LDH activity assay. One microgram of total protein from cell or tissue lysates was used for intracellular or in vivo LDH assays.
LLC and CT26 cells were suspended separately in PBS (5 × 10^5 cells/100 µL PBS) and inoculated in subcutaneously on the back of 7-week-old C57BL/6 mice and BALB/c mice respectively (Orient Bio Inc., Seongnam, Korea; n = 7). One day after the inoculation with tumor cells, mice of the control group (n = 7) were intraperitoneally administrated 100 µL of PBS per day for 18 days. Each of the MA-treated mice were intraperitoneally administrated 0.02, 0.2, or 1 mg MA, respectively, in 100 µL PBS per 20 g body weight, each day for 18 days. […] Length (l) and width (w) of each tumor were measured using a caliper, and the respective volume (V) was calculated according to the formula V = [(l × w^2)/2]. […]

MCF7 = assay: Lactate production assay; type: cell-based, human; conditions: normoxic
Experimental: (§1) Cellular lactate production was measured using a lactate fluorometric assay kit (Biovision, Milpitas, CA, USA) as described previously. Phenol red-free DMEM medium without FBS was added to a six-well plate containing subconfluent cells which were then incubated for 1 h at 37 °C. After incubation, the medium of each well was tested using a lactate assay kit (Biovision, Milpitas, CA, USA).

HT29 = assay: Lactate production assay; type: cell-based, human; conditions: for Lactate (production): normoxic
Experimental: as §1

HepG2 = assay: Lactate production assay; type: cell-based, human; conditions: normoxic
Experimental: as §1

DLD-1 = assay: Lactate production assay; type: cell-based, human; conditions: normoxic
Experimental: as §1

[2] = In vivo toxicity to liver and kidney (serum AST, ALT, creatinine, BUN); conditions: mice with allograft tumors
Experimental: LLC and CT26 cells were suspended separately in PBS (5 × 10^5 cells/100 µL PBS) and inoculated in subcutaneously on the back of 7-week-old C57BL/6 mice and BALB/c mice respectively (Orient Bio Inc., Seongnam, Korea; n = 7). One day after the inoculation with tumor cells, mice of the control group (n = 7) were intraperitoneally administrated 100 µL of PBS per day for 18 days. Each of the MA-treated mice were intraperitoneally administrated 0.02, 0.2, or 1 mg MA, respectively, in 100 µL PBS per 20 g body weight, each day for 18 days. All mice were euthanized 19 days after inoculation with the tumor cells, and the tumors were excised and weighed. Length (l) and width (w) of each tumor were measured using a caliper, and the respective volume (V) was calculated according to the formula V = [(l × w^2)/2]. Tumors were immediately removed from euthanized mice and prepared for histological examinations. To test liver and kidney toxicity of MA, at the end of the in vivo allograft experiment blood was collected from each mouse and serum was separated. Biochemical analyses of aspartate aminotransferase (AST), alanine aminotransferase (ALT), creatinine, and blood urea nitrogen (BUN) were performed using a commercial service (Green Cross Co., Yongin, Korea). […]

HT29 colon cancer cells = assay: Colony formation assay; type: cell-based, human; conditions: three weeks
Experimental: (§2) Base agar (0.6%) was placed at the bottom of the 6-well culture plate. After 30 min at room temperature, top agar (0.4%) mixed with HT29 (1 × 10^4 cells) or Hep3B (1 × 10^4 cells) cells was added to the base agar. HT29 and Hep3B cells were incubated at 37 °C and 5% CO2 for three weeks. The colonies were stained using 0.005% crystal violet for 1 h after which they were photographed and counted.

Hep3B liver cancer cells = assay: Colony formation assay; type: cell-based, human; conditions: three weeks
Experimental: as §2

LDHA [3] = assay: LDHA expression, western blot; type: cell-based, human; conditions: normoxic and hypoxic conditions
Experimental: Total protein was extracted from each cell using 1% NP-40 lysis buffer (150 mM NaCl, 10 mM HEPES (pH 7.45), 1% NP-40, 5 mM Na pyrophosphate, 5 mM NaF, 2 mM Na3VO4) containing protease inhibitor cocktail tablets (Roche, Basel, Switzerland). Equal amounts (20 μg) of protein from each sample were fractionated using SDS-PAGE and the protein was then transferred onto nitrocellulose membranes (Hybond ECL; GE Healthcare, Chicago, IL, USA) using electrophoresis. The membranes were blocked for 1 h at room temperature using 5% non-fat dry milk and were then incubated with primary antibodies specific to the target protein at 4 °C overnight. The membranes were washed three times, and incubated with the respective secondary antibodies conjugated with horseradish peroxidase. The specific bands of targeted proteins were detected using ECL Plus (GE Healthcare, Chicago, IL, USA).

phospholipase Cγ1 = tested on: phospholipase Cγ1; set-up: method as in PMID 15554262; conditions: cited from earlier work
LLC tumors = assay: Tumor allograft model, LLC cells (tumor growth, immunohistochemistry); type: in vivo, C57BL/6 mice
Experimental: LLC and CT26 cells were suspended separately in PBS (5 × 10^5 cells/100 µL PBS) and inoculated in subcutaneously on the back of 7-week-old C57BL/6 mice and BALB/c mice respectively (Orient Bio Inc., Seongnam, Korea; n = 7). One day after the inoculation with tumor cells, mice of the control group (n = 7) were intraperitoneally administrated 100 µL of PBS per day for 18 days. Each of the MA-treated mice were intraperitoneally administrated 0.02, 0.2, or 1 mg MA, respectively, in 100 µL PBS per 20 g body weight, each day for 18 days. All mice were euthanized 19 days after inoculation with the tumor cells, and the tumors were excised and weighed. Length (l) and width (w) of each tumor were measured using a caliper, and the respective volume (V) was calculated according to the formula V = [(l × w^2)/2]. Tumors were immediately removed from euthanized mice and prepared for histological examinations. To test liver and kidney toxicity of MA, at the end of the in vivo allograft experiment blood was collected from each mouse and serum was separated. Biochemical analyses of aspartate aminotransferase (AST), alanine aminotransferase (ALT), creatinine, and blood urea nitrogen (BUN) were performed using a commercial service (Green Cross Co., Yongin, Korea). All experimental procedures followed the Guidelines for the Care and Use of Laboratory Animals of the National Institutes of Health of Korea, and were approved by the Institutional Animal Care and Use Committee of Pusan National University, Republic of Korea (PNU-2018-1954, Date of approval: 27th June 2018).
Tumor specimens were immediately removed from euthanized mice, fixed in PBS with 3.7% formalin, and embedded in paraffin for immunohistochemical analyses. The paraffin sections were immunostained using an antibody specific to the endothelial cell marker CD31 (ab28364, Abcam, Cambridge, UK), macrophage marker CD68 (ab125212, Abcam, Cambridge, UK), and M2 phenotype macrophage marker CD206 (ab64693, Abcam, Cambridge, UK). The staining was visualized using a Dako EnVision kit (Dako, Santa Clara, CA, USA), and counterstained with hematoxylin.

C[C@H](Cc1ccc2c(c1)OCO2)[C@@H](C)Cc1ccc2c(c1)OCO2 [MA, bis(3,4-methylenedioxy)-8,8’-lignan]
mitochondrial ROS (HT29 cells): induced mitochondrial ROS | activity of LDH in LLC cell allografts (LDHA [1]; tumor tissue lysates): clearly inhibited | expression of LDHA in LLC cell allografts (LDHA [1]; western blot of tumor tissue): did not affect | Lactate (production) (MCF7; MA 10 µM): 1070 ± 150 µM | Lactate (production) (MCF7; MA 50 µM): 770 ± 190 µM | Lactate (production) (HT29; MA 10 µM): 3420 ± 370 µM | Lactate (production) (HT29; MA 50 µM): 2730 ± 40 µM | increase of lactate production in hypoxic condition (HT29; machilin A 30 μM, hypoxia): significantly reduced | Lactate (production) (HepG2; MA 10 µM): 510 ± 60 µM | Lactate (production) (HepG2; MA 50 µM): 470 ± 70 µM | Lactate (production) (DLD-1; MA 10 µM): 3680 ± 90 µM | Lactate (production) (DLD-1; MA 50 µM): 2940 ± 170 µM | in vivo toxicity to liver and kidney [2]: no significant toxic effect | number of surviving colonies (HT29 colon cancer cells): significantly reduced | number of surviving colonies (Hep3B liver cancer cells): significantly reduced | expression of LDHA (LDHA [3]): not affected | effect on phospholipase Cγ1 (phospholipase Cγ1): inhibiting phospholipase Cγ1 | expression of CD206 in macrophages in tumor tissues (LLC tumors; LLC tumors of mice): markedly inhibited | formation of new vessels in tumors (CD31) (LLC tumors; LLC tumors of mice): suppressed the formation of new vessels | presence of macrophages that infiltrated tumor tissues (CD68) (LLC tumors; LLC tumors of mice): no change | volume, weight, and size of tumors (LLC tumors; LLC, 1, 10, or 50 µg/g body weight intraperitoneally daily): significantly reduced

From paper PMC6678097, “Machilin A Inhibits Tumor Growth and Macrophage M2 Polarization Through the Reduction of Lactic Acid” (Cancers, 2019)
